Data: PMC3662962 (Biochemical and biophysical research communications, 2010)

Molecular target: RsbU phosphatase domain (Mycobacterium tuberculosis, UniProt P9WLZ7)
Test: biochemical

RsbU phosphatase domain, sequence (P9WLZ7 190-397): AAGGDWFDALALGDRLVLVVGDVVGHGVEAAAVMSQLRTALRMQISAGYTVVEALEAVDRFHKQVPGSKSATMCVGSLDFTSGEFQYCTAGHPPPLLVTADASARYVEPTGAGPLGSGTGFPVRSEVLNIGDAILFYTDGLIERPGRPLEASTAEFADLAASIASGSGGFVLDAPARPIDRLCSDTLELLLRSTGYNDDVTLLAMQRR

Structure (SMILES): O=P(O)(O)O [inorganic phosphate]
- Ki: 320 nM
